Results taken from US20080280878A1, “Methods and Compositions for Treating Chronic Lymphocytic Leukemia” (priority 2004, published 2008).
Values joined by “and” are separate entries in the source; they are usually repeats but may differ in a detail not shown here. Identical values can stand only once.

Assays:
[1] = system: ZAP70 in ZAP70+ CLL B cells; experiment: ZAP70 protein expression by indirect immunofluorescence and FACS analysis; format: cell-based, human; settings: ZAP70+ CLL B cells of one patient, 24 hours at 37° C.
Experimental: Levels of ZAP70 protein expression were measured by indirect immunofluorescence of permeabilized cells with specific anti-ZAP70 antibodies and FACS analysis.

[2] = cited from earlier work
ZAP70− CLL B cells = experiment: Viability (100%-% apoptotic cells) by DiOC6 and propidium iodide staining; settings: Homo sapiens, B-cell, 48 h, read-out: average % viability
[3] = system: ZAP70 in CLL B cells (CD3−, ZAP70+); experiment: Two-color flow cytometry of ZAP70 expression in white blood cells of a ZAP70+ CLL patient: CLL B cells; format: cell-based, human; settings: 300 nM, 24 hours at 37° C., untreated 85%
Experimental: (§1) The upper right quadrant were normal T-cells (CD3+, ZAP70+) the lower right quadrant were (CD3−, ZAP70+); the upper left quadrant is CD3+, ZAP70−; and the lower left quadrant is CD3−, ZAP70−.
(§2) (right panel). Levels of ZAP70 protein expression were measured by two color indirect immunofluorescence with specific anti-CD3 antibodies conjugated to phycoerytirin and anti-ZAP70 antibodies conjugated to Alexa-488 dye and analyzed by flow cytometry. CD3 is a specific marker of T cells. […] As shown in the untreated cells (left panel), approximately 5% of the cells were normal T-cells (CD3+, ZAP70+, upper right quadrant) and ˜85% of the cells were ZAP70+ CLL B cells (CD3−, ZAP70+, lower right quadrant). […] This is important because B-CLL patients are chronically immunosuppressed by their disease, so avoidance of effects on normal T-cell function performed by ZAP70 is clearly beneficial.
(§3) The samples were than prepared for flow cytometry analysis by a method described in Rassebti et al. supra. […] Levels of ZAP70 protein expression were measured by flow cytometry (FACSCalibur, BD Biosciences) and Flow-Jo software, version 2.7.4 (Tree Star).

[4] = system: ZAP70 in normal T-cells (CD3+, ZAP70+); experiment: Two-color flow cytometry of ZAP70 expression in white blood cells of a ZAP70+ CLL patient: normal T-cells; format: cell-based, human; settings: 300 nM, 24 hours at 37° C., untreated 4.5%
Experimental: as §1, §2, §3

[5] = Solvent stability of low melt form: slurrying in H2O:EtOH (90:10); format: physicochemical; settings: slurry in H2O:EtOH (90:10)
Experimental: 17-AAG may be prepared from geldanamycin by reacting with allyamine in dry THF under a nitrogen atmosphere. The crude product may be purified by slurrying in H2O:EtOH (90:10), and the washed crystals obtained have a melting point of 206-212° C. by capillary melting point technique. […] The two 17-AAG products are designated as the low melt form and high melt form.
MP=147-175° C. ^1H NMR and HPLC are consistent with the desired product.

Compound | degradation of ZAP70 [1] | maximum tolerated dose (MTD) ([2]; daily 1-hour infusion for 5 days every three weeks) [mg/m^2] | clearance ([2]; human, in vivo) [L/h] | terminal half-life ([2]; human, in vivo) [h] | Cmax ([2]; read-out: Plasma Cmax, human, in vivo) | viability at 0.1 µM (ZAP70− CLL B cells) [%] | average % viability (ZAP70+ CLL B cells; 0.1 µM) | time to reach 50% cell mortality (ZAP70+ CLL B cells; 100 nM, 37° C., cells of one ZAP70+ patient) | IC50 (ZAP70+ CLL B cells; read-out: 50% inhibitory concentration (IC50), cell killing, 48 hours at 37° C., cells of one ZAP70+ patient) [µM] | % positive cells (ZAP70) after treatment [3] [%] | % positive cells (ZAP70) after treatment [4] [%] | stability of the low melt form (conversion to high melt form) [5]
C=CCNC1=C2CC(C)CC(OC)C(O)C(C)/C=C(\C)C(OC(N)=O)C(OC)/C=C\C=C(/C)C(=O)NC(=CC1=O)C2=O (stereo not drawn) [Compound 17-AAG, 17-allylamino-17-demethoxygeldanamycin] | dose-dependently induced degradation of ZAP70 | 40 | 41.0 ± 13.5 | 2.5 ± 0.5 | 1860 nM and 3170 nM | 93 | 45.74+/−3.177% | approximately 48 hours | ~0.08 | 34 | 4.2 | –
C=CCNC1=C2C[C@@H](C)C[C@H](OC)[C@H](O)[C@@H](C)/C=C(\C)[C@H](OC(N)=O)[C@@H](OC)/C=C\C=C(/C)C(=O)NC(=CC1=O)C2=O [low melt form, 17-allylamino-17-demethoxygeldanamycin] | – | – | – | – | – | – | – | – | – | – | – | no conversion to the high melt form was observed
